According to patent publication US20260109707A1, “HETEROBIFUNCTIONAL COMPOUNDS AND METHODS OF TREATING DISEASE” (Halda Therapeutics OpCo. Inc., priority 2022, published 2026):
Read-outs that look alike come from different tables or passages of the source.

Columns and labels:
[1] = test system: T-Rex 293 cell line SC3 cells having increased expression of androgen receptor protein due to exposure to doxycycline; test: Cellular growth inhibition assay, T-Rex 293 SC3 cells with doxycycline (CellTiter-Glo, 72 hours); format: cell-based; settings: T-Rex 293 SC3 cells with increased androgen receptor expression due to doxycycline (10 ng/mL)
Summary of the method: (§1)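 Doxycycline (10 ng/mL) was either included or omitted to toggle wild-type androgen receptor expression in SC3 cells, a T-Rex 293 clone, grown in stripped-serum, phenol red-free medium. After 72 hours with compound, viable cells were quantified by CellTiter-Glo 2.0.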

[2] = test system: T-Rex 293 cell line SC3 cells lacking increased expression of androgen receptor protein; test: Cellular growth inhibition assay, T-Rex 293 SC3 cells without doxycycline (CellTiter-Glo, 72 hours); format: cell-based; settings: T-Rex 293 cell line SC3 cells not exposed to doxycycline (lacking increased androgen receptor expression)
Summary of the method: as §1

[3] = test system: VCaP cells; test: Cellular growth inhibition assay for VCaP cells (CellTiter-Glo, 72 hours); format: cell-based, human
Summary of the method: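 Luminescent viability signal after 72 h of compound exposure gave GI50 values by four-parameter nonlinear regression. Compounds were added in 0.5% DMSO to cells plated 24 h earlier at 5000/well in DMEM containing 10% FBS.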

Compound | GI50 ([1]; 72 h) | GI50 ([2]; 72 h) | GI50 ([3]; Homo sapiens, VCaP, 72 h) | GI50 [2] | GI50 [1] | GI50 [3]
COC[C@@H]1N=C(c2ccc(N3CCC4(CCCN(c5ccc(C(=O)N[C@H]6CC[C@H](Oc7ccc(C#N)c(Cl)c7)CC6)nn5)C4)CC3)cc2)c2c(sc(C)c2C)-n2c(C)nnc21 [I-568] | < 500 nM | < 500 nM | 1500 to 3000 nM | – | – | –
COCC[C@@H]1N=C(c2ccc(N3CCC4(CCCN(c5ccc(C(=O)N[C@H]6CC[C@H](Oc7ccc(C#N)c(Cl)c7)CC6)nn5)C4)CC3)cc2)c2c(sc(C)c2C)-n2c(C)nnc21 [I-569] | < 500 nM | > 3000 nM | > 3000 nM | – | – | –
COCC1N=C(c2ccc(C#CC3CC4(C3)CN(c3ccc(C(=O)N[C@H]5CC[C@H](Oc6ccc(C#N)c(Cl)c6)CC5)nn3)C4)cc2)c2c(sc(C)c2C)-n2c(C)nnc21 (stereo partly drawn) [I-570] | < 500 nM | – | < 500 nM | > 3000 nM | – | –
COCC1N=C(c2ccc(C#CC3CC4(C3)CN(c3ccc(C(=O)N[C@H]5CC[C@H](Oc6ccc(C#N)c(Cl)c6)CC5)nn3)C4)cc2)c2c(sc(C)c2C)-n2c(C)nnc21 (stereo partly drawn) [I-571] | – | – | – | < 500 nM | < 500 nM | < 500 nM
COCC[C@@H]1N=C(c2ccc(C#CC3CC4(C3)CN(c3ccc(C(=O)N[C@H]5CC[C@H](Oc6ccc(C#N)c(Cl)c6)CC5)nn3)C4)cc2)c2c(sc(C)c2C)-n2c(C)nnc21 [I-572] | < 500 nM | < 500 nM | < 500 nM | – | – | –
Cc1sc2c(c1C)C(c1ccc(C3CC(N4CCN(c5ccc(C(=O)N[C@H]6CC[C@H](Oc7ccc(C#N)c(Cl)c7)CC6)nn5)CC4)C3)cc1)=NC1(CC1)c1nnc(C)n1-2 (stereo partly drawn) [I-573] | < 500 nM | < 500 nM | < 500 nM | – | – | –
CC[C@@H]1N=C(c2ccc(C3CCC4(CCN(c5ccc(C(=O)N[C@H]6CC[C@H](Oc7ccc(C#N)c(Cl)c7)CC6)nn5)CC4)C3)cc2)c2c(sc(C)c2C)-n2c(C)nnc21 (stereo partly drawn) [I-574] | < 500 nM | > 3000 nM | < 500 nM | – | – | –
Cc1sc2c(c1C)C(c1ccc(C3CCC4(CCN(c5ccc(C(=O)N[C@H]6CC[C@H](Oc7ccc(C#N)c(Cl)c7)CC6)nn5)CC4)C3)nc1)=N[C@@H](C)c1nnc(C)n1-2 (stereo partly drawn) [I-575] | – | < 500 nM | – | – | < 500 nM | > 3000 nM
Cc1sc2c(c1C)C(c1ccc(N3CC(CC4CCCN(c5ccc(C(=O)N[C@H]6CC[C@H](Oc7ccc(C#N)c(Cl)c7)CC6)nn5)C4)C3)cc1)=N[C@@H](C)c1nnc(C)n1-2 (stereo partly drawn) [I-576] | < 500 nM | < 500 nM | < 500 nM | – | – | –
Cc1sc2c(c1C)C(c1ccc(N3CC(CC4CCCN(c5ccc(C(=O)N[C@H]6CC[C@H](Oc7ccc(C#N)c(Cl)c7)CC6)nn5)C4)C3)cc1)=N[C@@H](C)c1nnc(C)n1-2 (stereo partly drawn) [I-577] | – | – | – | < 500 nM | < 500 nM | 500 to 1500 nM
Cc1sc2c(c1C)C(c1ccc(CC3CCC4(C3)CN(c3ccc(C(=O)N[C@H]5CC[C@H](Oc6ccc(C#N)c(Cl)c6)CC5)nn3)CCO4)cc1)=N[C@@H](C)c1nnc(C)n1-2 (stereo partly drawn) [I-578] | < 500 nM | – | – | > 3000 nM | – | 500 to 1500 nM
Cc1sc2c(c1C)C(c1ccc(CC3CCC4(C3)CN(c3ccc(C(=O)N[C@H]5CC[C@H](Oc6ccc(C#N)c(Cl)c6)CC5)nn3)CCO4)cc1)=N[C@@H](C)c1nnc(C)n1-2 (stereo partly drawn) [I-579] | – | – | – | < 500 nM | < 500 nM | 1500 to 3000 nM
Cc1sc2c(c1C)C(c1ccc(CC3CCC4(C3)CN(c3ccc(C(=O)N[C@H]5CC[C@H](Oc6ccc(C#N)c(Cl)c6)CC5)nn3)CCO4)cc1)=N[C@@H](C)c1nnc(C)n1-2 (stereo partly drawn) [I-580] | – | – | – | < 500 nM | < 500 nM | < 500 nM
Cc1sc2c(c1C)C(c1ccc(CC3CCC4(C3)CN(c3ccc(C(=O)N[C@H]5CC[C@H](Oc6ccc(C#N)c(Cl)c6)CC5)nn3)CCO4)cc1)=N[C@@H](C)c1nnc(C)n1-2 (stereo partly drawn) [I-581] | – | – | – | < 500 nM | < 500 nM | < 500 nM
Cc1sc2c(c1C)C(c1ccc(CC3CCC4(CCCN(c5ccc(C(=O)N[C@H]6CC[C@H](Oc7ccc(C#N)c(Cl)c7)CC6)nn5)C4)C3)cc1)=N[C@@H](C)c1nnc(C)n1-2 (stereo partly drawn) [I-582] | < 500 nM | – | > 3000 nM | < 500 nM | – | –
Cc1sc2c(c1C)C(c1ccc(CC3CCC4(CCCN(c5ccc(C(=O)N[C@H]6CC[C@H](Oc7ccc(C#N)c(Cl)c7)CC6)nn5)C4)C3)cc1)=N[C@@H](C)c1nnc(C)n1-2 (stereo partly drawn) [I-583] | – | – | – | < 500 nM | < 500 nM | 1500 to 3000 nM

Compound | GI50 ([1]; 72 h) | GI50 ([2]; 72 h) | GI50 ([3]; Homo sapiens, VCaP, 72 h) | GI50 [2] | GI50 [1] | GI50 [3]
Cc1sc2c(c1C)C(c1ccc(CC3CCC4(CCCN(c5ccc(C(=O)N[C@H]6CC[C@H](Oc7ccc(C#N)c(Cl)c7)CC6)nn5)C4)C3)cc1)=N[C@@H](C)c1nnc(C)n1-2 (stereo partly drawn) [I-584] | – | – | – | < 500 nM | < 500 nM | 1500 to 3000 nM
Cc1sc2c(c1C)C(c1ccc(CC3CCC4(CCCN(c5ccc(C(=O)N[C@H]6CC[C@H](Oc7ccc(C#N)c(Cl)c7)CC6)nn5)C4)C3)cc1)=N[C@@H](C)c1nnc(C)n1-2 (stereo partly drawn) [I-585] | – | – | – | > 3000 nM | < 500 nM | > 3000 nM
Cc1sc2c(c1C)C(c1ccc(COC3CCC4(C3)CN(c3ccc(C(=O)N[C@H]5CC[C@H](Oc6ccc(C#N)c(Cl)c6)CC5)nn3)CCO4)cc1)=N[C@@H](C)c1nnc(C)n1-2 (stereo partly drawn) [I-586] | – | < 500 nM | – | – | < 500 nM | 500 to 1500 nM
Cc1sc2c(c1C)C(c1ccc(OC3CN(C(C)(C)C4CCN(c5ccc(C(=O)N[C@H]6CC[C@H](Oc7ccc(C#N)c(Cl)c7)CC6)nn5)CC4)C3)cc1)=N[C@@H](C)c1nnc(C)n1-2 [I-587] | < 500 nM | < 500 nM | 1500 to 3000 nM | – | – | –
Cc1sc2c(c1C)C(c1ccc(C3CC(N4CCN(c5ccc(C(=O)N[C@H]6CC[C@H](Oc7ccc(C#N)c(Cl)c7)CC6)nn5)CC4)C3)cc1)=N[C@@H](C)c1nnc(C)n1-2 (stereo partly drawn) [I-589] | < 500 nM | < 500 nM | < 500 nM | – | – | –
Cc1sc2c(c1C)C(c1ccc(C3CCC4(CC3)CCN(c3ccc(C(=O)N[C@H]5CC[C@H](Oc6ccc(C#N)c(Cl)c6)CC5)nn3)CC4)cc1)=N[C@@H](C)c1nnc(C)n1-2 [I-590] | < 500 nM | < 500 nM | > 3000 nM | – | – | –
Cc1sc2c(c1C)C(c1ccc(N3CCC4(CC3)CCN(c3ccc(C(=O)N[C@H]5CC[C@H](Oc6ccc(C#N)c(Cl)c6)CC5)nn3)C4)cc1)=N[C@H](C)c1nnc(C)n1-2 [I-591] | < 500 nM | > 3000 nM | < 500 nM | – | – | –
Cc1sc2c(c1C)C(c1ccc(CCCC3CCN(c4ccc(C(=O)N[C@H]5CC[C@H](Oc6ccc(C#N)c(Cl)c6)CC5)nn4)CC3)cc1)=N[C@@H](C)c1nnc(C)n1-2 [I-592] | < 500 nM | < 500 nM | < 500 nM | – | – | –
Cc1sc2c(c1C)C(c1ccc(CCC3CCN(c4ccc(C(=O)NC5CCC(Oc6ccc(C#N)c(Cl)c6)CC5)nn4)CC3)cc1)=NC(C)c1nnc(C)n1-2 (stereo not drawn) [I-593] | < 500 nM | < 500 nM | < 500 nM | – | – | –
Cc1sc2c(c1C)C(c1ccc(N3CC4(CC(CCc5ccc(C(=O)N[C@H]6CC[C@H](Oc7ccc(C#N)c(Cl)c7)CC6)nn5)C4)C3)cc1)=N[C@@H](C)c1nnc(C)n1-2 [I-594] | < 500 nM | 500 to 1500 nM | 500 to 1500 nM | – | – | –
Cc1sc2c(c1C)C(c1ccc(OC3(C)CC4(CN(c5ccc(C(=O)N[C@H]6CC[C@H](Oc7ccc(C#N)c(Cl)c7)CC6)nn5)C4)C3)cc1)=N[C@@H](C)c1nnc(C)n1-2 [I-595] | < 500 nM | < 500 nM | 500 to 1500 nM | – | – | –
Cc1sc2c(c1C)C(c1ccc(N3CCC(CCc4ccc(C(=O)N[C@H]5CC[C@H](Oc6ccc(C#N)c(Cl)c6)CC5)nn4)CC3)cc1)=N[C@@H](C)c1nnc(C)n1-2 [I-596] | < 500 nM | < 500 nM | < 500 nM | – | – | –
Cc1sc2c(c1C)C(c1ccc(OCC3CC4(CCCN(c5ccc(C(=O)N[C@H]6CC[C@H](Oc7ccc(C#N)c(Cl)c7)CC6)nn5)C4)C3)cn1)=NC1(CC1)c1nnc(C)n1-2 (stereo partly drawn) [I-597] | – | – | – | > 3000 nM | < 500 nM | < 500 nM
Cc1sc2c(c1C)C(c1ccc(N3CC(CC4CCCN(c5ccc(C(=O)N[C@H]6CC[C@H](Oc7ccc(C#N)c(Cl)c7)CC6)nn5)C4)C3)cc1)=NC1(CC1)c1nnc(C)n1-2 (stereo partly drawn) [I-598] | < 500 nM | – | – | < 500 nM | – | < 500 nM
CC[C@@H]1N=C(c2ccc(N3CCC4(CCN(c5ccc(C(=O)N[C@H]6CC[C@H](Oc7ccc(C#N)c(Cl)c7)CC6)nn5)CC4)C3)cc2)c2c(sc(C)c2C)-n2c(C)nnc21 [I-599] | < 500 nM | > 3000 nM | > 3000 nM | – | – | –
